{"source": "patent US20200000840A1", "about": "“USE OF CYCLODEXTRINS TO REDUCE ENDOCYTOSIS IN MALIGNANT AND NEURODEGENERATIVE DISORDERS” (priority 2016, published 2020)", "key": {"[1]": {"molecular_target": "BC resistance protein (BCRP/ABCG2) (Homo sapiens, UniProt Q9UNQ0)", "sequence (Q9UNQ0 whole entry)": "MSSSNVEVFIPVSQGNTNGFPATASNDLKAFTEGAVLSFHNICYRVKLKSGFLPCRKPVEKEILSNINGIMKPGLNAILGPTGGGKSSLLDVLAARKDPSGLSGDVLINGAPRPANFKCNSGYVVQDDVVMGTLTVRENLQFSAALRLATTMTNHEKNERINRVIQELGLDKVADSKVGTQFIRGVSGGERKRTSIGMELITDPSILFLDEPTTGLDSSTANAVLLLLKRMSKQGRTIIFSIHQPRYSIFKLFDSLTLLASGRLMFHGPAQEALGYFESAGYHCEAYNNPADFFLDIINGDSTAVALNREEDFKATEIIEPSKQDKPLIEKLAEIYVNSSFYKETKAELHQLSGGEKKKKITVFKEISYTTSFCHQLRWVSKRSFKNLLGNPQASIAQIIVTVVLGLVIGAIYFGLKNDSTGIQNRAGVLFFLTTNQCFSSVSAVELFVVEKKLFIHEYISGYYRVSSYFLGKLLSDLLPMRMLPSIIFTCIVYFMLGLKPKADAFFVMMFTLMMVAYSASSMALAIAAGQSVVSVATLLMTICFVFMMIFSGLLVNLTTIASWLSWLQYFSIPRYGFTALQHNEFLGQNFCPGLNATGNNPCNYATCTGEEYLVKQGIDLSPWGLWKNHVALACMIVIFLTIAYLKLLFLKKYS", "settings": "cited from earlier work"}, "[2]": {"system": "H7 Lewis lung cancer cell lines", "settings": "three H7 Lewis lung cancer cell lines; cited from earlier work"}, "[3]": {"system": "BC and prostate cancer cell lines", "settings": "cancer cell lines vs normal counterparts; cited from earlier work"}, "[4]": {"system": "MDA-MB-241 and ZR751 BC cells", "settings": "cited from earlier work"}, "MCF7 BC cells": {"system": "MCF7 BC cells", "settings": "cited from earlier work"}, "urothelial cancer cells": {"system": "urothelial cancer cells", "settings": "cited from earlier work"}, "[5]": {"system": "RTK-[PIP2]-PI3K-[PIP3]-AKT signaling in HeLa cells", "settings": "cited from earlier work"}, "leukemia cell lines": {"system": "leukemia cell lines", "settings": "cited from earlier work"}, "mouse model of BC": {"system": "mouse model of BC", "settings": "cited from earlier work"}, "[6]": {"system": "H7-O Lewis lung cancer cells", "settings": "mice implanted with H7-O Lewis lung cancer cells; cited from earlier work"}, "[7]": {"system": "primary effusion lymphoma (PEL)", "settings": "mice; cited from earlier work"}, "α-synuclein": {"system": "α-synuclein", "settings": "mice, neuronal cell body and synapses; cited from earlier work"}, "MDA-MB-231 BC cells": {"system": "MDA-MB-231 BC cells", "settings": "cited from earlier work"}, "MCF-7 cells": {"system": "MCF-7 cells", "assay": "Wound healing / gap closure migration assay (CytoSelect CBA-120)", "format": "cell-based, human", "settings": "treated 2 hours", "protocol": "(§1) Published results have shown that β-CD inhibits human MDA-MB 231 cell migration (Guerra et al. 2016). This inhibition was attributed to the ability of β-CD to “deplete cholesterol”. β-CD, however, depletes also phospholipids. […] Cells were cultured in 24-well culture plates (Cytoselect CBA-120, 0.9 mm wound healing/gap closure migration assay) for 24 hours with wound healing insert in place. […] Protocol: Warm up the 24-well plate (CBA-120, Cell BioLabs Inc.) with 0.9 mm CytoSelect Wound Healing Inserts at room temperature for 10 minutes. Using sterile forceps, orient the desired number of inserts in the plate wells with their “wound field” aligned in the same direction. Create a cell suspension containing 0.5-1.0×10^6 cells/ml in media containing 10% fetal bovine serum (FBS). Add 500 μL of cell suspension to each well by carefully inserting the pipette tip through the open end at the top of the insert. For optimal cell dispersion, add 250 μL of cell suspension to either side of the open ends at the top of the insert. Incubate cells in a cell culture incubator for 12-24 hours. Carefully remove the insert from the well to begin the wound healing assay. Use sterile forceps to grab and lift the insert slowly from the plate well. Slowly aspirate and discard the media from the wells. Wash wells with media to remove dead cells and debris. Finally, add media to wells to keep cells hydrated. Repeat wash if wells still have debris or unattached cells. When washing is complete, add media with FBS and/or compounds to continue cell culture and wound healing process. Agents that inhibit or stimulate cell migration can be added directly to the wells. Incubate cells in a cell culture incubator (2 hours) and then wash cells with PBS and then add fresh media without compounds. Incubate 12-24 hours before wash and fixing. Remove the fixation solution and add 400 μL of Cell Stain Solution to each well. Allow the stain to incubate with the cells for 15 minutes at room temperature. Aspirate and discard the solution. Carefully wash each stained well 3× with deionized water. Discard washes and allow cells to dry at room temperature. Cells that migrated into the wounded area or protruded from the border of the wound were visualized and photographed under an inverted microscope. Determine the surface area of the defined wound area: Total Surface Area=0.9 mm x length. Determine the surface area of the migrated cells into the wound area: Migrated Cell Surface Area=length of cell migration (mm)×2 x length. Percent Closure (%)=Migrated Cell Surface Area/Total Surface Area x 100."}, "MDA-MB-231 cells": {"system": "MDA-MB-231 cells", "assay": "Wound healing / gap closure migration assay (CytoSelect CBA-120)", "format": "cell-based, human", "settings": "treated 2 hours", "protocol": "as §1"}, "[8]": {"system": "MDA-MB 231 and MCF-7 human breast epithelial cell lines", "assay": "Wound healing assay, overall statements for both cell lines", "format": "cell-based", "protocol": "as §1"}, "[9]": {"settings": "Table 2; cited from earlier work"}, "BBB": {"system": "BBB", "settings": "cited from earlier work; for Transport across BBB: 2 h, 1 mM"}, "[10]": {"system": "human epithelial colorectal adenocarcinoma (Caco-2) cells", "settings": "cited from earlier work"}, "human erythrocytes": {"system": "human erythrocytes", "settings": "human erythrocytes; cited from earlier work"}, "transferrin endocytosis": {"system": "transferrin endocytosis", "settings": "10 mM; cited from earlier work"}, "human keratinocytes": {"system": "human keratinocytes", "settings": "cited from earlier work"}, "[11]": {"settings": "rats, rabbits, dogs, and humans; cited from earlier work"}, "Ab1-40/42": {"system": "Ab1-40/42", "settings": "rats, stereotactical injection into the hippocampus; cited from earlier work"}, "rats [12]": {"system": "rats", "settings": "rat; cited from earlier work"}, "rats [13]": {"system": "rats", "settings": "[…] daily; cited from earlier work"}, "rats [14]": {"system": "rats", "settings": "cited from earlier work"}, "[15]": {"settings": "in vivo; cited from earlier work"}}, "note": "Values joined by “and” are separate entries in the source; they are usually repeats but may differ in a detail not shown here. Equal entries are not always repeated. Where two headings read alike, the source gives them in different places. Marks after values point to notes of the source that are not given here."}
{"molecule": "methyl-β-cyclodextrin [MβCD]", "values": [{"measurement": "decrease in activity of BCRP/ABCG2", "setting": "[1]", "value": 40, "unit": "%"}, {"measurement": "invasion activity", "setting": "[2]", "value": "suppressed invasion activity"}, {"measurement": "sensitivity to induced cell death", "setting": "[3]", "value": "more sensitive to MβCD-induced cell death than their normal counterparts"}, {"measurement": "spheroid migration and invasion", "setting": "[4]", "value": "inhibited"}, {"measurement": "endocytosis", "setting": "MCF7 BC cells", "value": "inhibited"}, {"measurement": "migration", "setting": "MCF7 BC cells", "value": "inhibited"}, {"measurement": "toxicity, invasive vs non-invasive cells", "setting": "urothelial cancer cells", "value": "more toxic for invasive than for non-invasive urothelial cancer cells"}, {"measurement": "RTK-[PIP2]-PI3K-[PIP3]-AKT signaling", "setting": "[5]", "value": "interfered with RTK-[PIP2]-PI3K-[PIP3]-AKT signaling"}, {"measurement": "growth of leukemia cell lines", "setting": "leukemia cell lines", "value": "inhibited the growth"}, {"measurement": "concentration in tumor", "setting": "mouse model of BC", "value": "higher concentration in tumor than in other cells (except kidney and liver)"}, {"measurement": "efficacy in mouse model of BC", "setting": "mouse model of BC; in vivo", "value": "effective"}, {"measurement": "number of lung metastases", "setting": "[6]", "value": "reduced the number of lung metastases"}, {"measurement": "growth of primary effusion lymphoma", "setting": "[7]", "value": "inhibited growth"}, {"measurement": "accumulation of α-synuclein", "setting": "α-synuclein", "value": "reduced accumulation of α-synuclein"}, {"measurement": "internalization of exosomes containing integrins", "setting": "MDA-MB-231 BC cells", "value": "inhibited the internalization of exosomes"}]}
{"molecule": "hydroxypropyl-alpha-cyclodextrin [HPaCD]", "values": [{"measurement": "average wound closure", "setting": "MCF-7 cells; 1 mM", "value": 41.33, "unit": "%"}, {"measurement": "wound closure (Percent Closure), replications r1-r3", "setting": "MCF-7 cells; 1 mM", "value": "35.00% and 41.00% and 48.00%"}, {"measurement": "average wound closure", "setting": "MCF-7 cells; 2 mM", "value": 36.00, "unit": "%"}, {"measurement": "wound closure (Percent Closure), replications r1-r3", "setting": "MCF-7 cells; 2 mM", "value": "40.00% and 30.00% and 38.00%"}, {"measurement": "average wound closure", "setting": "MCF-7 cells; 4 mM", "value": 28.67, "unit": "%"}, {"measurement": "wound closure (Percent Closure), replications r1-r3", "setting": "MCF-7 cells; 4 mM", "value": "28.00% and 22.00% and 36.00%"}, {"measurement": "average wound closure", "setting": "MDA-MB-231 cells; 1 mM", "value": 53.00, "unit": "%"}, {"measurement": "wound closure (Percent Closure), replications r1-r3", "setting": "MDA-MB-231 cells; 1 mM", "value": "47.00% and 53.00% and 59.00%"}, {"measurement": "average wound closure", "setting": "MDA-MB-231 cells; 2 mM", "value": 40.00, "unit": "%"}, {"measurement": "wound closure (Percent Closure), replications r1-r3", "setting": "MDA-MB-231 cells; 2 mM", "value": "40.00% and 33.00% and 47.00%"}, {"measurement": "average wound closure", "setting": "MDA-MB-231 cells; 4 mM", "value": 31.67, "unit": "%"}, {"measurement": "wound closure (Percent Closure), replications r1-r3", "setting": "MDA-MB-231 cells; 4 mM", "value": "38.00% and 32.00% and 25.00%"}, {"measurement": "inhibition at 1 mM HPaCD compared with 2 mM HPbCD", "setting": "[8]", "value": "superior to inhibition at 2 mM HPbCD"}, {"measurement": "migration versus concentration", "setting": "[8]; 1-4 mM", "value": "migration decreased with higher concentration"}, {"measurement": "effect on migration, HPaCD compared with HPbCD", "setting": "[8]; all cases", "value": "stronger effect on migration than HPbCD"}, {"measurement": "Solubility in water", "setting": "[9]", "value": "~500^a g/l"}, {"measurement": "Transport across BBB", "setting": "BBB", "value": "26.7 (1 mM) %"}, {"measurement": "BBB breakdown", "setting": "BBB", "value": 2.5, "unit": "mM"}, {"measurement": "cytotoxicity", "setting": "[10]; Caco-2 cells", "value": "less cytotoxic than α-cyclodextrin"}]}
{"molecule": "OC[C@H]1O[C@@H]2O[C@H]3[C@H](O)[C@@H](O)[C@@H](O[C@H]4[C@H](O)[C@@H](O)[C@@H](O[C@H]5[C@H](O)[C@@H](O)[C@@H](O[C@H]6[C@H](O)[C@@H](O)[C@@H](O[C@H]7[C@H](O)[C@@H](O)[C@@H](O[C@H]8[C@H](O)[C@@H](O)[C@@H](O[C@H]9[C@H](O)[C@@H](O)[C@@H](O[C@H]1[C@H](O)[C@H]2O)O[C@@H]9CO)O[C@@H]8CO)O[C@@H]7CO)O[C@@H]6CO)O[C@@H]5CO)O[C@@H]4CO)O[C@@H]3CO", "note": "[γ-CD, gamma-cyclodextrin]", "values": [{"measurement": "hemolytic activity", "setting": "human erythrocytes", "value": "β-CD>α-CD>γ-CD"}]}
{"molecule": "OC[C@H]1O[C@@H]2O[C@H]3[C@H](O)[C@@H](O)[C@@H](O[C@H]4[C@H](O)[C@@H](O)[C@@H](O[C@H]5[C@H](O)[C@@H](O)[C@@H](O[C@H]6[C@H](O)[C@@H](O)[C@@H](O[C@H]7[C@H](O)[C@@H](O)[C@@H](O[C@H]8[C@H](O)[C@@H](O)[C@@H](O[C@H]1[C@H](O)[C@H]2O)O[C@@H]8CO)O[C@@H]7CO)O[C@@H]6CO)O[C@@H]5CO)O[C@@H]4CO)O[C@@H]3CO", "note": "[β-cyclodextrin, beta-cyclodextrin]", "values": [{"measurement": "Transport across BBB", "setting": "BBB", "value": "9.3 (1 mM) %"}, {"measurement": "BBB breakdown", "setting": "BBB", "value": 2.5, "unit": "mM"}, {"measurement": "reduction of transferrin endocytosis", "setting": "transferrin endocytosis", "value": 80, "unit": "%"}, {"measurement": "apoptotic cell death", "setting": "human keratinocytes", "value": "induces caspase-dependent apoptotic cell death"}, {"measurement": "steady-state volume of distribution", "setting": "[11]", "value": "corresponds well with the extracellular fluid volume of each species"}, {"measurement": "toxicity of Ab1-40/42", "setting": "Ab1-40/42", "value": "Toxicity of Ab1-40/42 was reduced"}, {"measurement": "LD50", "setting": "rats [12]", "value": 788, "unit": "mg/kg"}, {"measurement": "deaths, daily doses s.c.", "setting": "rats [13]", "value": "no deaths"}, {"measurement": "acute i.v. toxicity in rats", "setting": "rats [14]", "value": 1, "unit": "g/kg"}]}
{"molecule": "maltosyl-α-cyclodextrin", "values": [{"measurement": "cytotoxicity", "setting": "[10]", "value": "less cytotoxic than α-cyclodextrin"}]}
{"molecule": "alendronate-β-CD [ALN-β-CD]", "values": [{"measurement": "effect on bone", "setting": "[15]", "value": "bone-anabolic"}]}
